Data from patent publication US8357692B2, “Methods of treatment of bone degenerative diseases” (Washington University, priority 2010, dated 2013).
Entries after “also recorded” stand apart in the source; their conditions may differ. Where two headings read alike, the source gives them in different places.

Assays:
P. falciparum FCR-3 = details: cited from earlier work; for antimalarial activity and selectivity in words: against P. falciparum in vitro
FM3A mouse mammary cells = details: cited from earlier work
[1] = system: coculture of bone marrow macrophages (BMMs) with osteoblasts; assay: Osteoclast formation in coculture of bone marrow macrophages with osteoblasts; format: cell-based, mice; details: BMMs with primary osteoblasts, Vitamin D, varying concentrations
Protocol: Calvaria osteoblast isolation and culture: Whole calvaria were extracted from 3-4 day old pups and cleaned of soft and periostial tissue. Osteoblasts were liberated by 3×20 minute collagenase treatment at 37 degrees, shaking. Osteoblasts were transduced with appropriate virally expressed proteins when 50% confluent, selected with the appropriate antibiotic for 4 days, then plated for experiments. For cocultures, BMMs were cultured for 4 days prior to being lifted and then cultured with osteoblasts in α-MEM media containing pen/strep, 10% FBS and 10 nM VitD3, plus IL-17 or other cytokines where indicated.
To test whether IL-17 signaling is important in the pathogenesis of osteoporosis, the inventors mimicked the most common human form of osteoporosis, that of estrogen deficiency, by removing ovaries (ovx) in mice. […] Four weeks later, Micro-CT, a sensitive and specific measure of bone volume, was used to assess trabecular Bone Volume per Total Volume measured in the distal femora. […] Ovariectomized mice (n=5-7 mice per group) were treated with IL-17 blocking antibody or isotype control for two and four weeks and distal femora were analyzed by micro-CT.
To test the function of IL-17 signaling in the osteoblast, the inventors first determined the IL-17 receptor is expressed in osteoblasts, and its expression is unaffected by TNFα or IL-17 stimulation. […]

osteoblasts = assay: BrdU incorporation in osteoblasts; format: cell-based, mice; details: 10 ng/ml, 24 hours, IL-17 receptor WT and KO osteoblasts
Protocol: To test the function of IL-17 signaling in the osteoblast, the inventors first determined the IL-17 receptor is expressed in osteoblasts, and its expression is unaffected by TNFα or IL-17 stimulation. Primary osteoblasts were stimulated with vehicle control, IL-17 (10 ng/ml), TNF (5 ng/ml), or a combination of the two for 24 hours, and RT-PCR for the IL-17 receptor and actin was performed (FIG. 6). Next the inventors cultured BMMs in combination with primary osteoblasts, Vitamin D, and varying IL-17 concentrations. Osteoblasts were lifted, then osteoclasts were fixed and TRAP stained. […] Primary osteoblasts were stimulated with IL-17 or vehicle control for 24 hours, and RT-PCR was performed using primers for RANKL or actin. […] IL-17 receptor WT and KO osteoblasts were cultured with IL-17 (10 ng/ml) and BrdU for 24 hours, after which BrdU incorporation was measured by absorptiometry.

RANKL = assay: RT-PCR for RANKL in primary osteoblasts; format: cell-based, mice; details: 24 hours
Protocol: RT-PCR: RNA was isolated using RNeasy kits (Qiagen); RLT lysis buffer was supplemented with β-mercaptoethanol (1%). Purified RNA was treated with DNase I (Invitrogen; Carlsbad, Calif.) prior to reverse transcription (RT). RT was performed using SuperScript III (Invitrogen). A negative control using RNA not subjected to reverse transcription was included in each assay. Quantitative PCR (qPCR) was performed using Applied Biosystems's (Foster City, Calif.) Power SYBR green master mix and gene specific primers. The qPCR reaction was run on Applied Biosystem's ABI Prism 7000. Transcript levels were normalized to cyclophilin.
To test the function of IL-17 signaling in the osteoblast, the inventors first determined the IL-17 receptor is expressed in osteoblasts, and its expression is unaffected by TNFα or IL-17 stimulation. Primary osteoblasts were stimulated with vehicle control, IL-17 (10 ng/ml), TNF (5 ng/ml), or a combination of the two for 24 hours, and RT-PCR for the IL-17 receptor and actin was performed (FIG. 6). Next the inventors cultured BMMs in combination with primary osteoblasts, Vitamin D, and varying IL-17 concentrations. Osteoblasts were lifted, then osteoclasts were fixed and TRAP stained. […] IL-17 receptor WT and KO osteoblasts were cultured with IL-17 (10 ng/ml) and BrdU for 24 hours, after which BrdU incorporation was measured by absorptiometry.

[2] = system: CD4+ T-cells producing IL-17 (Th17 cells); assay: Flow cytometry of spleen cells for CD4+ T-cells producing IL-17; format: in vivo; details: ovx mice treated daily for two weeks
[3] = healthy male volunteers, cited from earlier work
fibrosis accumulation = details: rat urethral stricture, cirrhosis, pulmonary fibrosis models; cited from earlier work
bone formation = assay: Bone formation assay (calcein double labeling); format: in vivo; details: mice treated daily for 14 days, versus PBS control
Protocol: Bone formation assay (calcein double labeling): Mice were injected with 7.5 mg/kg calcein (Sigma-Aldrich; St. Louis, Mo.). Five days later mice were injected again, and tibias were harvested after an additional 2 days for histologic analysis. Dynamic assessment of trabecular bone formation was determined on non-decalcified sections using BioQuant software (Bioquant; Nashville, Tenn.). This software provided measures of bone surface, percent single-(sLS/BS) and double-labeled (dLS/BS) bone surface, mineralizing surface (MS/BS), mineral apposition rate (MAR), and bone formation rate (BFR/BS). Trabecular bone measurements were taken from a region encompassing a 500 μm-long field, across the width of the bone (located 100 μm below the growth plate). For each animal, 2 serial sections were analyzed and the measurements averaged. Pictures were obtained using an Olympus 1×51 fluorescent microscope fitted with Olympus DP70 camera (Olympus; Center Valley, Pa.).
Since Halofuginone inhibits type I collagen synthesis by fibroblasts and other cells, bone formation rates were tested to determine whether the rates are reduced in mice treated with the chemical. Mice were treated daily with HL or vehicle control for 14 days, while Calcein was injected on day 7 and 12, and Mineral Apposition Rates (MAR) and Bone Formation Rates (BFR) were determined.

collagen α1(I) = details: cited from earlier work
[4] = system: ovariectomy-induced bone loss; assay: Ovariectomy-induced bone loss in mice, micro-CT of distal femora; format: in vivo
Body composition by MRI = format: in vivo, mice; details: 12 weeks of treatment, versus PBS
Protocol: MRI: Measurements of body composition were performed using the magnetic resonance imaging facility located at the Animal Model Research Core at Washington University (CNRU grant NIB P30 DK56341).
IL-17A inhibits adipocyte differentiation from human mesenchymal stem cells (Shin et al., Biochem. Pharmacol., 77(12), 1835-1844, 2009). IL17R−/− mice are heavier and have higher leptin levels, which is a marker of adopocyte mass (Galic et al., Mol. Cell Endocrinol., 316(2), 129-139, 2010; Goswami et al., Eur J Immunol, 39(10), 2831-2839, 2009). Leptin can stimulate IL-17 production (Liu et al., Br. J. Ophthalmol., 92(4), 557-561, 2008), and blood IL-17 levels are increased in obese women (Sumarac-Dumanovic et al., Int. J. Obes. (Lond), 33(1), 151-156, 2009). […] Eight week old mice (n=6 mice per group) were treated with Halofuginone or PBS for 12 weeks, after which body content was measured using MRI.

[5] = system: IL-17 production and TH17 cell differentiation; details: cited from earlier work
serum CTx = assay: Serum CTx ELISA in ovariectomized mice; format: in vivo; details: ovx mice treated daily, two weeks, relative to sham operated mice
[6] = Table 1, against P. falciparum FCR-3, in vitro, read-out: EC50 (M) antimalarial activity
[7] = read-out: EC50 (M) cytotoxicity, Table 1, against FM3A mouse mammary cells
[8] = Table 2, against P. falciparum FCR-3, in vitro, read-out: EC50 (M) antimalarial activity
[9] = read-out: EC50 (M) cytotoxicity, Table 2, against FM3A mouse mammary cells

CCN(CC)CCCC(C)Nc1ccnc2cc(Cl)ccc12 (stereo not drawn) [chloroquine]
EC50 (P. falciparum FCR-3; [6]): 1.8e-08 M | EC50 (FM3A mouse mammary cells; [7]): 3.2e-05 M

O=c1c2ccccc2ccn1CC1(O)C[C@@H]2NCCC[C@@H]2O1 (stereo partly drawn) [compound 15]
EC50 (P. falciparum FCR-3; [6]): 2.1e-06 M | EC50 (FM3A mouse mammary cells): > 6.3e-06 M

O=C(C[C@H]1NCCC[C@@H]1O)Cn1cnccc1=O [compound 12]
EC50 (P. falciparum FCR-3; [6]): 6e-07 M | EC50 (FM3A mouse mammary cells; [7]): > 1.9e-05 M

IL-17: interleukin-17, cytokine promoting osteoclast formation, added to cultures
osteoclast formation [1]: potently induced osteoclast formation | osteoblast proliferation (BrdU incorporation) (osteoblasts): does not affect osteoblast proliferation | RANKL mRNA expression in the osteoblast (RANKL): induced by IL-17

O=C(C[C@H]1NCCC[C@@H]1O)Cn1cnc2ccccc2c1=O [compound 1, febrifugine]
EC50 (P. falciparum FCR-3; [6]): 7e-10 M | EC50 (FM3A mouse mammary cells; [7]): 1.7e-07 M

O=c1ccncn1CC1(O)C[C@@H]2NCCC[C@@H]2O1 (stereo partly drawn) [compound 13]
EC50 (P. falciparum FCR-3; [6]): 4e-08 M | EC50 (FM3A mouse mammary cells): 7e-06 M

CNc1ccccc1C(=O)N[C@H]1C(O)=C[C@@H]2[C@@H](O)CCCN2C1(C)C [compound 39]
EC50 (P. falciparum FCR-3; [8]): 6e-07 M | EC50 (FM3A mouse mammary cells; [9]): > 1.7e-05 M

CC1(C)[C@@H](N2CNc3ccccc3C2=O)C(O)=C[C@@H]2[C@@H](O)CCCN21 [compound 38]
EC50 (P. falciparum FCR-3; [8]): 4.2e-07 M | EC50 (FM3A mouse mammary cells; [9]): > 1.6e-05 M

C[C@@H]1CC[C@H]2[C@@H](C)C(=O)O[C@@H]3O[C@@]4(C)CC[C@@H]1[C@]32OO4 [artemisinin]
EC50 (P. falciparum FCR-3; [6]): 1e-08 M | EC50 (FM3A mouse mammary cells): 1e-05 M

O=c1c2ccccc2ncn1CC1(O)C[C@@H]2NCCC[C@@H]2O1 (stereo partly drawn) [compound 2, isofebrifugine]
EC50 (P. falciparum FCR-3; [6]): 3.4e-09 M | EC50 (FM3A mouse mammary cells): 1.8e-07 M

O=C(C[C@H]1NCCC[C@@H]1O)Cn1ccc2ccccc2c1=O [compound 14]
EC50 (P. falciparum FCR-3; [6]): 5e-07 M | EC50 (FM3A mouse mammary cells; [7]): > 1.6e-05 M

O=C(C[C@@H]1NCCC[C@H]1O)Cn1cnc2cc(Br)c(Cl)cc2c1=O [Halofuginone, 7-Bromo-6-chloro-3-[3-[(2S,3R)-3-hydroxy-2-piperidinyl]-2-oxopropyl]-4-quinazolinone]
percentage of CD4+ T-cells producing IL-17 [2]: reduces Th17 cells; also recorded: significantly reduced | maximal tolerated dose ([3]; daily oral dose): 1.5 mg | tolerability ([3]; oral, 1.5 to 2.5 mg): moderately tolerated | tolerability of single oral doses ([3]; single oral doses of 0.07 and 0.5 mg): safe and well tolerated | fibrosis accumulation (fibrosis accumulation): inhibit fibrosis accumulation | bone formation rates (bone formation): does not affect bone formation; also recorded: equivalent bone formation rates | Collagen type II or III (collagen α1(I)): not inhibited | collagen α1(I) mRNA and protein levels (collagen α1(I); variety of cells): inhibits collagen α1(I) mRNA and protein levels | Connectivity Density ([4]; four weeks after ovariectomy, daily injection): completely protected | ovariectomy-induced bone loss ([4]; four weeks post-ovx): lost significantly less bone than PBS injected mice; also recorded: protects from ovariectomy-induced bone loss; also recorded: lose significantly less bone | BV/TV, BV, connectivity density, trabecular thickness, and trabecular number ([4]; ovx mice, daily treatment, four weeks, relative to sham): but not in Halofuginone treated ovx mice relative to sham | Bone volume per total volume (BV/TV) ([4]; ovx mice, daily treatment, two weeks): significantly lower in vehicle treated ovx mice compared with either sham or Halofuginone treated ovx mice | ovariectomy-induced bone loss ([4]; two weeks post-ovx): lost significantly less bone than PBS treated mice; also recorded: protects from ovariectomy-induced bone loss; also recorded: lose significantly less bone | percent body fat (Body composition by MRI): reduced percent body fat | percent lean mass (Body composition by MRI): small but statistically significant increase | total fat mass (Body composition by MRI): significantly less total fat mass | TGFβ inhibition ([5]; at concentrations that inhibit IL-17 production): no TGFβ inhibition is seen | IL-17 production and TH17 cell differentiation [5]: inhibits IL-17 production and TH17 cell differentiation | serum CTx (serum CTx): reduces serum CTx; also recorded: blunted, non-statistically significant, increase

O=C(CC1NCCCC1=O)Cn1cnc2ccccc2c1=O (stereo not drawn) [compound 7]
EC50 (P. falciparum FCR-3; [6]): 2e-08 M | antimalarial activity and selectivity in words (P. falciparum FCR-3): potential antimalarial activity with high selectivity | EC50 (FM3A mouse mammary cells; [7]): 1e-05 M

O=c1c2ccccc2ncn1CC(O)C[C@H]1NCCC[C@@H]1O (stereo partly drawn) [compound 8]
EC50 (P. falciparum FCR-3; P. falciparum in vitro, read-out: EC50, in vitro antimalarial activity): 2e-08 M | antimalarial activity and selectivity in words (P. falciparum FCR-3): strongly active and selective | EC50 (FM3A mouse mammary cells; [7]): 1.5e-05 M
